Experimental data taken from ChEMBL document CHEMBL5356981, “Discovery of potential scaffolds for glutaminyl cyclase inhibitors: Virtual screening, synthesis, and evaluation” (Bioorg Med Chem, 2024).

Target: Glutaminyl-peptide cyclotransferase (Homo sapiens, UniProt Q16769)
Experiment: Inhibition of N-terminal his6-tagged human recombinant glutaminyl cyclase expressed in Escherichia coli using H-Gln-AMC as substrate incubated for 60 mins in presence of pyroglutamyl peptidase

Glutaminyl-peptide cyclotransferase, sequence (Q16769 whole entry): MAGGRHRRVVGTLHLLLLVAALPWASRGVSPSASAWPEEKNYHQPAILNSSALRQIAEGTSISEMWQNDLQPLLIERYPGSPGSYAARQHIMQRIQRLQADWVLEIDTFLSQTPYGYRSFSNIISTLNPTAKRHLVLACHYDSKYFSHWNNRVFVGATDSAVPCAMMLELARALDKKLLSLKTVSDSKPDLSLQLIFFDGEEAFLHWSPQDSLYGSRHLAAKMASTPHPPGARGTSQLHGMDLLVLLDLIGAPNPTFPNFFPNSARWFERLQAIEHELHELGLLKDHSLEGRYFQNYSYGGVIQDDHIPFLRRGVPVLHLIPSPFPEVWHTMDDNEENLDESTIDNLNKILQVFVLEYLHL

IC50: > 30 µM
SMILES: COc1ccc(S(=O)(=O)Nc2ccc(-c3cn[nH]c3)cc2)cc1
